According to patent US20260042764A1, “COMPOSITIONS AND METHODS FOR INHIBITION OF KRAS” (TheRas, Inc., priority 2022, published 2026):

Experiments:
RKN cells (KRAS G12V) = assay: Cell-based pERK HTRF assay in RKN cells (Biological Example 5)
Protocol: Biological Example 5: Cell-based PERK HTRF assay in AsPC-1, SW1900, HPAC, Capan-2, RKN, H358, HCT116, KP-2, H1573, A549, MKN1, and HT1080 cells
The inhibition of ERK phosphorylation, as measured using the HTRF Advanced Phospho-ERK 1/2 (Thr202/Tyr204) Detection Assay kit (Perkin Elmer), was used to determine the effectiveness of test compounds in disrupting KRAS-driven protein/effector signaling in cells.
On day 1, cells were seeded into 96-well plates at 2.5×10^4 cells/well in 100 μL of complete growth media supplemented with 10% fetal bovine serum (FBS) and incubated at 37° C., in the presence of 5% CO2.
On day 2, cells were treated with compounds diluted in DMSO at 0.25% final DMSO concentration. Compounds were dosed in a 9-point concentration curve with three-fold dilution between concentrations. Cells were incubated in the presence of compound for two hours at 37° C. Following this treatment period, cells were harvested by aspirating the media, adding 40 μL of kit-supplied 1x lysis buffer per well, and shaking for 30 minutes at 250 rpm at room temperature.
Following cell lysis, samples were homogenized by pipetting up and down twenty times and 16 μL of cell lysate per well was transferred from the 96-well cell culture plate to two wells of a 384-well detection plate. A complete detection buffer was prepared by diluting D2 and Eu Cryptate antibodies 1:20 in kit-provided detection solution, 4 μL of complete detection buffer was then added to each well with lysate. Plates were incubated with gentle rocking for 24 hours at 4° C.
Following this incubation period, plates were centrifuged at 500×g for one minute and analyzed on a CLARIOstar plate reader. Data was imported into Microsoft Excel and the signal from the 665 nm channel was divided by the signal from the 620 nm channel. % pERK was calculated as: […]
Data was imported to the Prism software package (Graphpad) and EC50 values were calculated using the log (inhibitor) vs, response—variable slopc (Four parameters) model.

[1] = target: T1, Avi-KRAS G12D (2-169) GTP/RAF1 RBD-3xFLAG (51-131) (Homo sapiens, UniProt P01116, G12D); assay: Raf1-KRAS G12D-GTP disruption HTRF assay (Biological Example 3); assay type: binding; details: KRAS G12D, GTP-loaded
T1 construct: Avi-KRAS G12D (2-169)
Outline: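 An HTRF assay measured disruption of 50 nM Avi-KRAS (2-169)-GTP (WT, G12C, G12D or G12V) bound to RAF1 RBD-3xFLAG (51-131). Buffer was Tris pH 7.5 with 5 mM MgCl2 and 10% DMSO. Compounds (30–0.005 μM, 3-fold, 10 points) were incubated 1 h at room temperature, and activity is given as % of DMSO.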

GP2d cells (KRAS G12D) = assay: Cell-based pERK HTRF assay in GP2d cell (Biological Example 2); details: GP2d (KRAS G12D) cells
Outline: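 Phospho-ERK in lysed cells was detected by HTRF using Eu cryptate and d2 antibodies, read between 4 and 24 h at room temperature. Prior to lysis, KRAS G12D GP2d cells, seeded the day before in DMEM with 10% FBS, were exposed to compounds for 60 min. Compounds were tested as 9-point half-log curves from 1 μM or 100 nM top, with 0.25% DMSO.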

T1 sequence (P01116 2-169 isoform P01116-2 G12D): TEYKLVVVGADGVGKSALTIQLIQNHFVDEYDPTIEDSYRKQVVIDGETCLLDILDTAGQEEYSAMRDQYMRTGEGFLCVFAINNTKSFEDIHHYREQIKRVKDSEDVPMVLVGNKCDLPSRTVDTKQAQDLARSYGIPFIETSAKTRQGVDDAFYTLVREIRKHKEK

Compound	IC50 (RKN cells (KRAS G12V)) [nM]	IC50 [1] [nM]	IC50 (GP2d cells (KRAS G12D); GP2d) [nM]	IC50 (GP2d cells (KRAS G12D); GP2d, pERK HTRF, class symbols) [nM]	IC50 (GP2d cells (KRAS G12D); GP2d, pERK HTRF) [nM]	IC50 (GP2d cells (KRAS G12D); pERK HTRF) [nM]	IC50 (GP2d cells (KRAS G12D); pERK HTRF, class symbols) [nM]	IC50 (GP2d cells (KRAS G12D)) [nM]
C[C@H]1Cn2nc(C(=O)N(C)C)cc2CN1c1nc(OC[C@@]23CCCN2C[C@H](F)C3)nc2c(F)c(-c3ccc(F)c4sc(N)c(C#N)c34)c(C(F)(F)F)cc12 (atropisomer, axis not shown) [Compound 610]	≤ 100	100 to 1000	< 100	< 100	–	–	–	–
C[C@@H]1[C@H](N(C)c2nc(OC[C@@]34CCCN3C[C@H](F)C4)nc3c(F)c(-c4ccc(F)c5sc(N)c(C#N)c45)c(C(F)(F)F)cc23)CC(=O)N1C [Compound 440]	100 to 1000	–	–	–	< 100	–	–	–
CCN(c1nc(OC[C@@]23CCCN2C[C@H](F)C3)nc2c(F)c(-c3ccc(F)c4sc(N)c(C#N)c34)c(C(F)(F)F)cc12)[C@H]1CCN(C(=O)C(C)C)C1 [Compound 332]	≤ 100	100 to 1000	< 100	–	< 100	–	–	–
CCN(c1nc(OC[C@@]23CCCN2C[C@H](F)C3)nc2c(F)c(-c3ccc(F)c4sc(N)c(C#N)c34)c(C(F)(F)F)cc12)[C@H]1CCN(C(=O)c2ncco2)C1 (atropisomer, axis not shown) [Compound 584]	≤ 100	–	–	< 100	–	–	–	–
CCC(=O)N1CC[C@@H](N(C)c2nc(OC[C@@]34CCCN3C[C@H](F)C4)nc3c(F)c(-c4ccc(F)c5sc(N)c(C#N)c45)c(C(F)(F)F)cc23)[C@H]1C [Compound 260]	≤ 100	–	–	–	–	< 100	–	–
N#Cc1c(N)sc2c(F)ccc(-c3c(C(F)(F)F)cc4c(N5CC6CC(C5)O6)nc(OC[C@@]56CCCN5C[C@H](F)C6)nc4c3F)c12 (single isomer, unassigned) [Compound 275]	≤ 100	100 to 1000	< 100	–	–	< 100	–	–
CCC(=O)N1C[C@@H](N(CC)c2nc(OC[C@@]34CCCN3C[C@H](F)C4)nc3c(F)c(-c4ccc(F)c5sc(N)c(C#N)c45)c(C(F)(F)F)cc23)C[C@H]1C [Compound 442]	≤ 100	–	–	–	< 100	–	–	–
CCN(c1nc(OCC23CCCN2CC(F)C3)nc2c(F)c(-c3ccc(F)c4sc(N)c(C#N)c34)c(C(F)(F)F)cc12)C1CC(C)N(C(=O)N2CC(F)C2)C1 (centres unmarked) [Compound 759]	≤ 100	–	–	–	–	–	< 100	–
CCN(c1nc(OC[C@@]23CCCN2C[C@H](F)C3)nc2c(F)c(-c3ccc(F)c4sc(N)c(C#N)c34)c(C(F)(F)F)cc12)[C@H]1C[C@H](C)N(C(=O)[C@@H]2CC2(F)F)C1 (atropisomer, axis not shown) [Compound 751]	≤ 100	–	–	< 100	–	–	–	–
CN(c1nc(OC[C@@]23CCCN2C[C@H](F)C3)nc2c(F)c(-c3ccc(F)c4sc(N)c(C#N)c34)c(C(F)(F)F)cc12)[C@H]1C[C@@H](O)C1 [Compound 19, 2-amino-7-fluoro-4-((S)-8-fluoro-2-(((2R,7aS)-2-fluorotetrahydro-1H-pyrrolizin-7a(5H)-yl)methoxy)-4-(((1s,3R)-3-hydroxycyclobutyl)(methyl)amino)-6-(trifluoromethyl)quinazolin-7-yl)benzo[b]thiophene-3-carbonitrile]	≤ 100	≤ 100	–	–	–	< 100	–	< 100
CCN(c1nc(OC[C@@]23CCCN2C[C@H](F)C3)nc2c(F)c(-c3ccc(F)c4sc(N)c(C#N)c34)c(C(F)(F)F)cc12)[C@H]1C[C@H](C)N(C(=O)N2CC(OC)C2)C1 (atropisomer, axis not shown) [Compound 764]	≤ 100	≤ 100	< 100	< 100	–	–	–	–
CCN(c1nc(OC[C@@]23CCCN2C[C@H](F)C3)nc2c(F)c(-c3ccc(F)c4sc(N)c(C#N)c34)c(C(F)(F)F)cc12)[C@@H]1CCN(C(C)=O)C1 [Compound 268]	≤ 100	100 to 1000	< 100	–	< 100	–	–	–
CCN(c1nc(OC[C@@]23CCCN2C[C@H](F)C3)nc2c(F)c(-c3ccc(F)c4sc(N)c(C#N)c34)c(C(F)(F)F)cc12)[C@H]1CC(=O)N2CCC[C@@H]12 (atropisomer, axis not shown; (aS)) [Compound 697, 2-amino-4-((S)-4-(ethyl((1S,7aS)-3-oxohexahydro-1H-pyrrolizin-1-yl)amino)-8-fluoro-2-(((2R,7aS)-2-fluorotetrahydro-1H-pyrrolizin-7a(5H)-yl)methoxy)-6-(trifluoromethyl)quinazolin-7-yl)-7-fluorobenzo[b]thiophene-3-carbonitrile]	≤ 100	≤ 100	< 100	< 100	–	–	–	–
C/C=C/C(=O)N1CC[C@H](N(CC)c2nc(OC[C@@]34CCCN3C[C@H](F)C4)nc3c(F)c(-c4ccc(F)c5sc(N)c(C#N)c45)c(C(F)(F)F)cc23)C1 (atropisomer, axis not shown) [Compound 674]	≤ 100	≤ 100	100 to 1000	< 100	–	–	–	–
N#Cc1cnn2c1CN(c1nc(OC[C@@]34CCCN3C[C@H](F)C4)nc3c(F)c(-c4ccc(F)c5sc(N)c(C#N)c45)c(C(F)(F)F)cc13)CC2 [Compound 392]	≤ 100	–	–	–	< 100	–	–	–
CCN(c1nc(OC[C@@]23CCCN2C[C@H](F)C3)nc2c(F)c(-c3ccc(F)c4sc(N)c(C#N)c34)c(C(F)(F)F)cc12)[C@H]1CCN(C(C)=O)C1 [Compound 262]	≤ 100	≤ 100	< 100	–	< 100	–	–	–
C=C(C)C(=O)N1CC[C@H](N(CC)c2nc(OC[C@@]34CCCN3C[C@H](F)C4)nc3c(F)c(-c4ccc(F)c5sc(N)c(C#N)c45)c(C(F)(F)F)cc23)C1 (atropisomer, axis not shown) [Compound 673]	–	≤ 100	< 100	< 100	–	–	–	–
CCN(c1nc(OC[C@@]23CCCN2C[C@H](F)C3)nc2c(F)c(-c3ccc(F)c4sc(N)c(C#N)c34)c(C(F)(F)F)cc12)[C@@H]1CC(=O)N(C2CC2)C1 (atropisomer, axis not shown) [Compound 703]	–	1000 to 10000	–	< 100	–	–	–	< 100
CCN(c1nc(OC[C@@H]2C[C@@H](OC)CN2C)nc2c(F)c(-c3ccc(F)c4sc(N)c(C#N)c34)c(C(F)(F)F)cc12)[C@H]1CCN(C(=O)C(C)C)C1 [Compound 706]	–	100 to 1000	< 100	< 100	–	–	–	–
CCN(c1nc(OC[C@@]23CCCN2C[C@H](F)C3)nc2c(F)c(-c3ccc(F)c4sc(N)c(C#N)c34)c(C(F)(F)F)cc12)[C@H]1CCN(C(=O)C2CC2(F)F)C1 (some centres unmarked) [Compound 581]	–	≤ 100	< 100	< 100	–	–	–	–
Cc1c(C(=O)N2CCCC2)nn2c1CN(c1nc(OCC34CCCN3CC(F)C4)nc3c(F)c(-c4ccc(F)c5sc(N)c(C#N)c45)c(C(F)(F)F)cc13)CC2 (centres unmarked) [Compound 744]	–	100 to 1000	< 100	< 100	–	–	–	–
CC(=O)N1CC[C@@H](N(C)c2nc(OC[C@@]34CCCN3C[C@H](F)C4)nc3c(F)c(-c4ccc(F)c5sc(N)c(C#N)c45)c(C(F)(F)F)cc23)[C@H]1C (single isomer, unassigned) [Compound 193]	–	100 to 1000	< 100	–	–	< 100	–	–
